Assay results reported in patent US11912723B2, “KRAS modulators and uses thereof” (Quanta Therapeutics, Inc., priority 2022, dated 2024).

Experiments:
KRAS G12D/RAF1 = molecular target: T1, KRAS G12D/RAF1 (Homo sapiens, UniProt P01116, G12D); assay: Protein-protein interaction (PPI) HTRF assay KRAS G12D/RAF1; assay type: binding; conditions: KRAS G12D/RAF1, GppNHp-loaded KRAS; 30 minutes pre-incubation
T1 construct: KRAS (1-169) proteins were expressed in E. coli at 18° C; His6-MBP (N, cleaved yes); made in house; host or cells: E. coli
Protocol: Biotinylated KRAS wt and KRAS G12DNV proteins were expressed and purified in conditions similar to those previously reported (Tran, et al., 2021) (Zhang, et al., 2020). Briefly, KRAS (1-169) proteins were expressed in E. coli at 18° C. with an upstream TEV cleavage site (ENLFYQS) followed an Avi tag sequence ([…]). KIRAS expression constructs contained both a His6 and maltose-binding protein (MBP) tags at the N-terminus for Ni-NTA column purification prior to overnight TEV cleavage and MBP column purification. The avi-tagged NRAS expression construct contained both a His6 tag and SUMO cleavage sige at the N-terminus for Ni-NTA column purification followed by His-ULP1 digestion overnight. All avi-tagged RAS proteins were dialyzed into buffer containing ATP, biotin, and BirA followed by purification over a second Ni-NTA column and then run over a size exclusion HiLoad™ 26/600 Superdex™ column in 20 mM HEPES, pH 7.5, 300 mM NaCl, 5 mM MgCl2, and 1 mM TCEP. Fractions containing the protein of interest were pooled, concentrated, and confirmed by intact mass spectrometry. To prepare ‘GTP’ loaded KRAS and NRAS, biotinylated KRAS or NRAS was nucleotide exchanged from GDP-bound protein to GppNHp-bound (Jena Biosciences, NU-401-50) protein in the presence of alkaline phosphatase and excess GppNHp as previously described and the resulting nucleotide content was confirmed by HPLC reverse phase analytical chromatography (Donohue, et al., 2019) (Tran, et al., 2021).
His-tagged RAF1 (52-131) was similarly expressed in E. coli at 18° C. overnight with an upstream TEV cleavage site. His-tagged RAF1 expression construct contained both a His6 and MBP tags at the N-terminus for Ni-NTA column purification followed by MBP-tagged TEV digestion overnight. RAF1 protein samples were further purified over a MBP column followed by a Ni-NTA column and a second MBP column. The fractions containing the protein of interest were pooled, concentrated, and further purified over a HiLoad™ 16/600 Superdex™ 75 pg size exclusion column into 20 mM HEPES, pH8.0, 200 mM NaCl, 5 mM TCEP.
When RAS proteins are in the active GTP-bound conformation, they bind the effector protein RAF1 at the N-terminus Ras-binding domain (RBD, residues 52-131) (Tran, et al., 2021). Homogenous time resolved fluorescence (HTRF) was used to monitor the interaction between wt or mutant KRAS and RAF1 or wt NRAS and RAFT. Compounds were assayed in the presence of KRAS G12D/V and RAF1 versus wt KRAS to assess activity against mutant and w.t. KRAS. Similarly, compounds were then assayed in the presence of w.t. NRAS and RAF1 to assess RAS isoform selectivity. In all assay formats, His-tagged RAF1 protein was incubated with the HTRF donor, anti-6His Tb Cryptate gold (Cisbio 61DB10RDF), and biotinylated RAS proteins were incubated with the HTRF acceptor, streptavidin-d2 (CisBio 610SADLA). The intensity of the fluorescence signal emitted is proportional to binding between the two proteins. The donor solution was prepared by mixing 16 nM His-tagged RAF1 in protein dilution buffer with 1:100 anti-6His Tb cryptate in PPI-Terbium detection buffer. 16 nM biotinylated RAS protein was diluted into protein dilution buffer (50 mM Tris-HCl pH 7.5, 150 mM NaCl, 0.1 mM MgCl2, 1 mM TCEP, 0.005% Tween20) and mixed with 1:2000 Streptavidin-d2 diluted in PPI-Terbium detection buffer (CisBio 61DB10RDF). 50× compound in DMSO was mixed with 16 nM KRAS-acceptor solution and incubated for 30 minutes at room temperature. After compound pre-incubation with KRAS, the RAF1 donor solution was added to the KRAS-acceptor solution and incubated for 1 hour at room temperature. The fluorescence signal emitted was monitored at 665 nm and 615 nm using an Envision multimode plate reader. The HTRF ratio (665/615) was calculated and normalized to 0% inhibition in the absence of compound and 100% inhibition in the presence of untagged RAF1 protein. […]

[1] = molecular target: T2, GST-tagged KRAS G12D (2-169) (Homo sapiens, UniProt P01116, G12D); assay: Nucleotide exchange assay (NEA), HTRF of SOS-mediated GTP-DY-647P1 binding; assay type: biochemical; conditions: 5 nM GST-KRAS G12D, 20 nM SOScat, 150 nM GTP; compound 1 h at RT
T2 construct: GST-tagged KRAS^G12D (2-169, Reaction Biology, MSC-11-539); purchased Reaction Biology MSC-11-539 (KRAS G12D); MSC-11-502 (SOS1cat)
From the text: This activity is tightly regulated by GTPase activating proteins (GAPs) and guanine nucleotide exchange factors (GEFs). GEFs, such as SOS1/2, activate Ras proteins by exchanging GDP for GTP, thus returning Ras to its active conformation (Simanshu, Nissley, & McCormick, 2017). […] Homogenous time resolved fluorescence (HTRF) was used to detect SOS-mediated binding of a fluorescent GTP analog, GTP-DY-647P1 (Jena Biosciences NU-820-647P1) to GST-tagged KRAS^G12D (2-169, Reaction Biology, MSC-11-539).
GST-tagged KRAS^G12D (2-169) and anti-GST MAb Tb Cryptate Gold (CisBio 61GSTTLB) were diluted into assay buffer (20 mM HEPES, pH 7.3, 150 mM NaCl, 5 mM MgCl2, 0.05% BSA 0.0025% NP40, 1 mM DTT) to prepare a 2.5× donor solution. 5× compound was added to the protein mixture and incubated for 1 h at RT. 2.5× acceptor solution containing SOS1cat (564-1049, Reaction Biology MSC-11-502) and GTP-DY-647P1 were then added to the donor KRAS mixture such that the final concentration of the reaction contained 5 nM GST-tagged KRAS^G12D (2-169), 20 nM SOScat, and 150 nM GTP. The reaction was monitored using at RT with the Envision multimode plate reader (Ex/Em 337/665, […]) up to 90 minutes at 5 minute intervals. Data was blanked to reactions without SOS1 and % inhibition was calculated such that DMSO only=0% and blank=100%. Curve fitting was done using a 4 parameter fit. NEA KRAS G12D ID50 (uM) values of selected compounds are depicted in Table 2 with compounds having a value<0.01 uM as ++++; >0.01 uM to 0.1 uM as +++; >0.1 uM to 1 uM as ++; >1 uM to 20 uM as +; and >20 uM as NA.

T2 sequence (P01116 2-169 isoform P01116-2 G12D): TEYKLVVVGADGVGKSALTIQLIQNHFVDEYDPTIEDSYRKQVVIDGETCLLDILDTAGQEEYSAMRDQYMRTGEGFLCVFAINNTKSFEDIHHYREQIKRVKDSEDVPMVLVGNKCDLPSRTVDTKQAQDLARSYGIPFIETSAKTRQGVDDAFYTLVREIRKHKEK
T1 sequence (P01116 1-169 isoform P01116-2 G12D): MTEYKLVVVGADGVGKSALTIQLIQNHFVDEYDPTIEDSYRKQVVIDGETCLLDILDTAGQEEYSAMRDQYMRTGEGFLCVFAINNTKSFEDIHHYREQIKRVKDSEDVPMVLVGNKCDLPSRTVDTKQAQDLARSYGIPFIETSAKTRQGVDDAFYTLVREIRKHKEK

| Compound | IC50 (KRAS G12D/RAF1) | IC50 [1] |
| --- | --- | --- |
| O=C1NC(=O)[C@@H]2CN(c3nc(OC[C@@]45CCCN4C[C@H](F)C5)nc4c3CO[C@@]3(CCc5c(Cl)cccc53)C4)C[C@H]12 [Compound 33, (3aR,6aS)-5-[(7S)-4′-chloro-2-[[(2R,8S)-2-fluoro-1,2,3,5,6,7-hexahydropyrrolizin-8-yl]methoxy]spiro[5,8-dihydropyrano[4,3-d]pyrimidine-7,1′-indane]-4-yl]-3a,4,6,6a-tetrahydropyrrolo[3,4-c]pyrrole-1,3-dione] | 10000 to 100000 nM | 100 to 1000 nM |
| CC(C)NC(=O)c1cc2n(n1)CCCN(c1nc(OC[C@@]34CCCN3C[C@H](F)C4)nc3c1CO[C@@]1(CCc4c(Cl)cccc41)C3)C2 [Compound 35, 5-[(7S)-4′-chloro-2-[[(2R,8S)-2-fluoro-1,2,3,5,6,7-hexahydropyrrolizin-8-yl]methoxy]spiro[5,8-dihydropyrano[4,3-d]pyrimidine-7,1′-indane]-4-yl]-N-isopropyl-4,6,7,8-tetrahydropyrazolo[1,5-a][1,4]diazepine-2-carboxamide] | > 100000 nM | 10 to 100 nM |
| CN(C)C(=O)c1nn2c(c1Cl)CN(c1nc(OC[C@@]34CCCN3C[C@H](F)C4)nc3c1CO[C@@]1(CCc4c(Cl)cccc41)C3)CCC2 [Compound 36, 3-chloro-5-[(7S)-4′-chloro-2-[[(2R,8S)-2-fluoro-1,2,3,5,6,7-hexahydropyrrolizin-8-yl]methoxy]spiro[5,8-dihydropyrano[4,3-d]pyrimidine-7,1′-indane]-4-yl]-N,N-dimethyl-4,6,7,8-tetrahydropyrazolo[1,5-a][1,4]diazepine-2-carboxamide] | 10000 to 100000 nM | < 10 nM |
| CN(O)C(=O)c1cc2n(n1)CCCN(c1nc(OC[C@@]34CCCN3C[C@H](F)C4)nc3c1CO[C@@]1(CCc4c(Cl)cccc41)C3)C2 [Compound 37, 5-[(7S)-4′-chloro-2-[[(2R,8S)-2-fluoro-1,2,3,5,6,7-hexahydropyrrolizin-8-yl]methoxy]spiro[5,8-dihydropyrano[4,3-d]pyrimidine-7,1′-indane]-4-yl]-N-hydroxy-N-methyl-4,6,7,8-tetrahydropyrazolo[1,5-a][1,4]diazepine-2-carboxamide] | > 100000 nM | < 10 nM |
| O=C(c1cc2n(n1)CCCN(c1nc(OC[C@@]34CCCN3C[C@H](F)C4)nc3c1CO[C@@]1(CCc4c(Cl)cccc41)C3)C2)N1CCOCC1 [Compound 38, morpholino-[5-[(7S)-4′-chloro-2-[[(2R,8S)-2-fluoro-1,2,3,5,6,7-hexahydropyrrolizin-8-yl]methoxy]spiro[5,8-dihydropyrano[4,3-d]pyrimidine-7,1′-indane]-4-yl]-4,6,7,8-tetrahydropyrazolo[1,5-a][1,4]diazepin-2-yl]methanone; 2,2,2-trifluoroacetic acid] | 10000 to 100000 nM | < 10 nM |
| CN(C)C(=O)c1cc2n(n1)CCCN(c1nc(OC[C@@]34CCCN3C[C@H](F)C4)nc3c1COC1(CCCc4ccc(O)c(Cl)c41)C3)C2 (stereo partly drawn) [Compound 40, 5-[8′-chloro-7′-hydroxy-2-[[(2R,8S)-2-fluoro-1,2,3,5,6,7-hexahydropyrrolizin-8-yl]methoxy]spiro[5,8-dihydropyrano[4,3-d]pyrimidine-7,1′-tetralin]-4-yl]-N,N-dimethyl-4,6,7,8-tetrahydropyrazolo[1,5-a][1,4]diazepine-2-carboxamide] | > 100000 nM | 10 to 100 nM |
| N=S1(=O)CCN(C(=O)c2nn3c(c2Cl)CN(c2nc(OC[C@@]45CCCN4C[C@H](F)C5)nc4c2CO[C@@]2(CCc5c(Cl)cccc52)C4)CCC3)CC1 [Compound 52, [3-chloro-5-[(7S)-4′-chloro-2-[[(2R,8S)-2-fluoro-1,2,3,5,6,7-hexahydropyrrolizin-8-yl]methoxy]spiro[5,8-dihydropyrano[4,3-d]pyrimidine-7,1′-indane]-4-yl]-4,6,7,8-tetrahydropyrazolo[1,5-a][1,4]diazepin-2-yl]-(1-imino-1-oxo-1,4-thiazinan-4-yl)methanone] | 10000 to 100000 nM | < 10 nM |
| CNCc1nn2c(c1Cl)CN(c1nc(OC[C@@]34CCCN3C[C@H](F)C4)nc3c1CO[C@@]1(CCc4c(Cl)cccc41)C3)CCC2 [Compound 59, 1-[3-chloro-5-[(7S)-4′-chloro-2-[[(2R,8S)-2-fluoro-1,2,3,5,6,7-hexahydropyrrolizin-8-yl]methoxy]spiro[5,8-dihydropyrano[4,3-d]pyrimidine-7,1′-indane]-4-yl]-4,6,7,8-tetrahydropyrazolo[1,5-a][1,4]diazepin-2-yl]-N-methyl-methanamine] | > 100000 nM | 10 to 100 nM |
| CS(=O)(=O)c1cc2n(n1)CCCN(c1nc(OC[C@@]34CCCN3C[C@H](F)C4)nc3c1CO[C@@]1(CCc4c(Cl)cccc41)C3)C2 [Compound 62, (7S)-4′-chloro-2-[[(2R,8S)-2-fluoro-1,2,3,5,6,7-hexahydropyrrolizin-8-yl]methoxy]-4-(2-methylsulfonyl-4,6,7,8-tetrahydropyrazolo[1,5-a][1,4]diazepin-5-yl)spiro[5,8-dihydropyrano[4,3-d]pyrimidine-7,1′-indane]] | > 100000 nM | 10 to 100 nM |
| CN1Cc2c(nc(OC[C@@]34CCCN3C[C@H](F)C4)nc2N2CCC[C@]3(C2)NC(=O)NC3=O)C[C@]12CCCc1ccccc12 [Compound 71, (5R)-9-[(7S)-2-[[(2R,8S)-2-fluoro-1,2,3,5,6,7-hexahydropyrrolizin-8-yl]methoxy]-6-methyl-spiro[5,8-dihydropyrido[4,3-d]pyrimidine-7,1′-tetralin]-4-yl]-1,3,9-triazaspiro[4.5]decane-2,4-dione] | > 100000 nM | 100 to 1000 nM |
